The supplement of paper PMC6045584
± gives the standard deviation of the averaged measurements.

What was measured:
SNX-5422 [1] = compound: T1, CC1(C)CC(=O)c2c(C(F)(F)F)nn(-c3ccc(C(N)=O)c(N[C@H]4CC[C@H](OC(=O)CN)CC4)c3)c2C1 [SNX-5422]; test: area under dose-response curve of surviving fraction (unscaled, Aref=0) (surviving fraction x log10(nM)); higher = more resistant; details: exposure time: 5 days; dose range 0.5-1000 nM
How it was run: (§1)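 Surviving fractions were fitted by 3-parameter logistic regression in the drc R package to give dose-response survival curves. They came from tumour cell lines treated for five days with eight inhibitor concentrations from 0.5 to 1000 nM and read by CellTiter-Glo luminescence against DMSO-only wells. The area under the curve is the unscaled activity area. It was calculated over log10 dose with Aref = 0.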

[2] = compound: Cn1cc(C2=Nc3cc(NC(=O)C(N)C4CCCCC4)cc4c3C2=CNNC4=O)cn1; test: as above; details: exposure time: 5 days; dose range 0.5-1000 nM
How it was run: as §1

BI-2536 [3] = compound: T2, CC[C@@H]1C(=O)N(C)c2cnc(Nc3ccc(C(=O)NC4CCN(C)CC4)cc3OC)nc2N1C1CCCC1 [BI-2536]; test: as above; details: exposure time: 5 days; dose range 0.5-1000 nM
How it was run: as §1

MDV3100 [4] = compound: T3, CNC(=O)c1ccc(N2C(=S)N(c3ccc(C#N)c(C(F)(F)F)c3)C(=O)C2(C)C)cc1F [MDV3100]; test: as above; details: exposure time: 5 days; dose range 0.5-1000 nM
How it was run: as §1

TIOGUANINE [5] = compound: T4, Nc1nc2[nH]cnc2c(=S)[nH]1 [TIOGUANINE]; test: as above; details: exposure time: 5 days; dose range 0.5-1000 nM
How it was run: as §1

CANERTINIB [6] = compound: T5, C=CC(=O)Nc1cc2c(Nc3ccc(F)c(Cl)c3)ncnc2cc1OCCCN1CCOCC1 [CANERTINIB]; test: as above; details: exposure time: 5 days; dose range 0.5-1000 nM
How it was run: as §1

AFATINIB [7] = compound: T6, CN(C)C/C=C/C(=O)Nc1cc2c(Nc3ccc(F)c(Cl)c3)ncnc2cc1O[C@H]1CCOC1 [AFATINIB]; test: as above; details: exposure time: 5 days; dose range 0.5-1000 nM
How it was run: as §1

SAPACITABINE [8] = compound: T7, CCCCCCCCCCCCCCCC(=O)Nc1ccn([C@@H]2O[C@H](CO)[C@@H](O)[C@@H]2C#N)c(=O)n1 [SAPACITABINE]; test: as above; details: exposure time: 5 days; dose range 0.5-1000 nM
How it was run: as §1

SNX-5422 [9] = compound: T1, SNX-5422; test: surviving fraction relative to DMSO-only wells; higher = less growth inhibition; details: exposure time: 5 days
How it was run: (§2)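 Continuous five-day exposure to inhibitors at 0.5, 1, 5, 10, 50, 100, 500 and 1000 nM started 24 hours after log-phase tumour cell lines were seeded at 250–500 cells per well in 384-well plates. Luminescence was read after 10 minutes at room temperature. Viability is given as surviving fraction, meaning CellTiter-Glo luminescence normalised to the median of DMSO-only wells.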

[10] = compound: Cn1cc(C2=Nc3cc(NC(=O)C(N)C4CCCCC4)cc4c3C2=CNNC4=O)cn1; test: as above; details: exposure time: 5 days
How it was run: as §2

BI-2536 [11] = compound: T2, BI-2536; test: as above; details: exposure time: 5 days
How it was run: as §2

MDV3100 [12] = compound: T3, MDV3100; test: as above; details: exposure time: 5 days
How it was run: as §2

TIOGUANINE [13] = compound: T4, TIOGUANINE; test: as above; details: exposure time: 5 days
How it was run: as §2

CANERTINIB [14] = compound: T5, CANERTINIB; test: as above; details: exposure time: 5 days
How it was run: as §2

AFATINIB [15] = compound: T6, AFATINIB; test: as above; details: exposure time: 5 days
How it was run: as §2

SAPACITABINE [16] = compound: T7, SAPACITABINE; test: as above; details: exposure time: 5 days
How it was run: as §2

JIMT1 BREAST
area under dose-response curve (SNX-5422 [1]): 2.23
area under dose-response curve [2]: 2.96
area under dose-response curve (BI-2536 [3]): 0.911
area under dose-response curve (MDV3100 [4]): 3.33
area under dose-response curve (TIOGUANINE [5]): 3.25
area under dose-response curve (CANERTINIB [6]): 2.93
area under dose-response curve (AFATINIB [7]): 2.62
area under dose-response curve (SAPACITABINE [8]): 2.84
surviving fraction (SNX-5422 [9]; 0.5 nM): 0.994 ± 0.017
surviving fraction (SNX-5422 [9]; 1 nM): 0.973 ± 0.032
surviving fraction (SNX-5422 [9]; 5 nM): 1.01 ± 0.026
surviving fraction (SNX-5422 [9]; 10 nM): 1.01 ± 0.015
surviving fraction (SNX-5422 [9]; 50 nM): 0.792 ± 0.0081
surviving fraction (SNX-5422 [9]; 100 nM): 0.271 ± 0.029
surviving fraction (SNX-5422 [9]; 500 nM): 0.0693 ± 0.0067
surviving fraction (SNX-5422 [9]; 1000 nM): 0.0723 ± 0.0026
surviving fraction ([10]; 0.5 nM): 0.921 ± 0.046
surviving fraction ([10]; 1 nM): 0.941 ± 0.051
surviving fraction ([10]; 5 nM): 0.911 ± 0.023
surviving fraction ([10]; 10 nM): 0.9362 ± 0.0086
surviving fraction ([10]; 50 nM): 0.874 ± 0.037
surviving fraction ([10]; 100 nM): 0.927 ± 0.042
surviving fraction ([10]; 500 nM): 0.803 ± 0.011
surviving fraction ([10]; 1000 nM): 0.424 ± 0.025
surviving fraction (BI-2536 [11]; 0.5 nM): 0.941 ± 0.041
surviving fraction (BI-2536 [11]; 1 nM): 0.737 ± 0.015
surviving fraction (BI-2536 [11]; 5 nM): 0.2183 ± 0.0013
surviving fraction (BI-2536 [11]; 10 nM): 0.181 ± 0.0095
surviving fraction (BI-2536 [11]; 50 nM): 0.18 ± 0.017
surviving fraction (BI-2536 [11]; 100 nM): 0.158 ± 0.02
surviving fraction (BI-2536 [11]; 500 nM): 0.143 ± 0.0061
surviving fraction (BI-2536 [11]; 1000 nM): 0.0883 ± 0.0045
surviving fraction (MDV3100 [12]; 0.5 nM): 0.964 ± 0.025
surviving fraction (MDV3100 [12]; 1 nM): 0.9673 ± 0.007
surviving fraction (MDV3100 [12]; 5 nM): 1.01 ± 0.02
surviving fraction (MDV3100 [12]; 10 nM): 0.983 ± 0.02
surviving fraction (MDV3100 [12]; 50 nM): 1.04 ± 0.048
surviving fraction (MDV3100 [12]; 100 nM): 1.07 ± 0.076
surviving fraction (MDV3100 [12]; 500 nM): 1.05 ± 0.055
surviving fraction (MDV3100 [12]; 1000 nM): 0.982 ± 0.025
surviving fraction (TIOGUANINE [13]; 0.5 nM): 0.966 ± 0.018
surviving fraction (TIOGUANINE [13]; 1 nM): 0.975 ± 0.023
surviving fraction (TIOGUANINE [13]; 5 nM): 0.984 ± 0.034
surviving fraction (TIOGUANINE [13]; 10 nM): 0.9947 ± 0.0086
surviving fraction (TIOGUANINE [13]; 50 nM): 1.05 ± 0.015
surviving fraction (TIOGUANINE [13]; 100 nM): 1.03 ± 0.025
surviving fraction (TIOGUANINE [13]; 500 nM): 0.9495 ± 0.0077
surviving fraction (TIOGUANINE [13]; 1000 nM): 0.912 ± 0.0067
surviving fraction (CANERTINIB [14]; 0.5 nM): 0.896 ± 0.02
surviving fraction (CANERTINIB [14]; 1 nM): 0.904 ± 0.029
surviving fraction (CANERTINIB [14]; 5 nM): 0.94 ± 0.029
surviving fraction (CANERTINIB [14]; 10 nM): 0.911 ± 0.021
surviving fraction (CANERTINIB [14]; 50 nM): 0.968 ± 0.021
surviving fraction (CANERTINIB [14]; 100 nM): 0.897 ± 0.042
surviving fraction (CANERTINIB [14]; 500 nM): 0.633 ± 0.041
surviving fraction (CANERTINIB [14]; 1000 nM): 0.541 ± 0.042
surviving fraction (AFATINIB [15]; 0.5 nM): 0.987 ± 0.023
surviving fraction (AFATINIB [15]; 1 nM): 0.994 ± 0.029
surviving fraction (AFATINIB [15]; 5 nM): 0.96 ± 0.015
surviving fraction (AFATINIB [15]; 10 nM): 0.909 ± 0.044
surviving fraction (AFATINIB [15]; 50 nM): 0.732 ± 0.028
surviving fraction (AFATINIB [15]; 100 nM): 0.687 ± 0.049
surviving fraction (AFATINIB [15]; 500 nM): 0.603 ± 0.012
surviving fraction (AFATINIB [15]; 1000 nM): 0.301 ± 0.014
surviving fraction (SAPACITABINE [16]; 0.5 nM): 0.862 ± 0.018
surviving fraction (SAPACITABINE [16]; 1 nM): 0.8617 ± 0.0045
surviving fraction (SAPACITABINE [16]; 5 nM): 0.899 ± 0.032
surviving fraction (SAPACITABINE [16]; 10 nM): 0.87 ± 0.025
surviving fraction (SAPACITABINE [16]; 50 nM): 0.966 ± 0.046
surviving fraction (SAPACITABINE [16]; 100 nM): 0.859 ± 0.04
surviving fraction (SAPACITABINE [16]; 500 nM): 0.632 ± 0.015
surviving fraction (SAPACITABINE [16]; 1000 nM): 0.558 ± 0.032

HS57T LUNG
area under dose-response curve (SNX-5422 [1]): 2.06
area under dose-response curve [2]: 2.49
area under dose-response curve (BI-2536 [3]): 1.08
area under dose-response curve (MDV3100 [4]): 3.03
area under dose-response curve (TIOGUANINE [5]): 3.23
area under dose-response curve (CANERTINIB [6]): 2.92
area under dose-response curve (AFATINIB [7]): 3.15
area under dose-response curve (SAPACITABINE [8]): 2.37
